Organism: Rattus norvegicus
Assay: DrugMatrix - Regimen: Daily Repeat
Assay type: toxicity, organism-based, Sprague-Dawley
Parameters: regimen Daily Repeat, gender Male, age 6-8 weeks
Conditions: in vivo, po, route oral GAVAGE, vehicle 100 % WATER; for ABSOLUTE BASOPHIL / ABSOLUTE EOSINOPHIL / ABSOLUTE LYMPHOCYTE / ABSOLUTE MONOCYTE / ABSOLUTE SEGMENTED NEUTROPHIL / BASOPHIL / EOSINOPHIL / ERYTHROCYTE COUNT / HEMATOCRIT / HEMOGLOBIN / LEUKOCYTE COUNT / LYMPHOCYTE / MEAN CORPUSCULAR HEMOGLOBIN / MEAN CORPUSCULAR HEMOGLOBIN CONCENTRATION / MEAN CORPUSCULAR VOLUME / MONOCYTE / NEUTROPHIL / NUCLEATED RED BLOOD CELLS / PLATELET COUNT: tissue Blood; for ALANINE AMINOTRANSFERASE / ALBUMIN / ALKALINE PHOSPHATASE / ASPARTATE AMINOTRANSFERASE / BLOOD UREA NITROGEN / CARBON DIOXIDE / CHLORIDE / CHOLESTEROL / CREATINE PHOSPHOKINASE / CREATININE / GLUCOSE / LACTATE DEHYDROGENASE / LIPASE / PHOSPHORUS / POTASSIUM / SODIUM / TOTAL BILIRUBIN / TOTAL PROTEIN / URIC ACID: tissue Plasma
[1] = 10 mg/kg, 120 h, dose level Low, time 5 day
[2] = 280 mg/kg, 72 h, dose level High, time 3 day
[3] = 280 mg/kg, 120 h, dose level High, time 5 day

SMILES: NNc1nncc2ccccc12 [HYDRALAZINE]
- ABSOLUTE BASOPHIL [1]: 0 CELLS/uL
- ABSOLUTE EOSINOPHIL [1]: 0 CELLS/uL
- ABSOLUTE LYMPHOCYTE [1]: 12743.33 CELLS/uL
- ABSOLUTE MONOCYTE [1]: 327.33 CELLS/uL
- ABSOLUTE SEGMENTED NEUTROPHIL [1]: 1062.67 CELLS/uL
- BASOPHIL [1]: 0%
- EOSINOPHIL [1]: 0%
- ERYTHROCYTE COUNT [1]: 5.27 x10E6/uL
- HEMATOCRIT [1]: 32.27%
- HEMOGLOBIN [1]: 13.07 G/DL
- LEUKOCYTE COUNT [1]: 14.13 x10E3/uL
- LYMPHOCYTE [1]: 90%
- MEAN CORPUSCULAR HEMOGLOBIN [1]: 24.8 pg
- MEAN CORPUSCULAR HEMOGLOBIN CONCENTRATION [1]: 40.53 G/DL
- MEAN CORPUSCULAR VOLUME [1]: 61.17 fL
- MONOCYTE [1]: 2.33%
- NEUTROPHIL [1]: 7.67%
- NUCLEATED RED BLOOD CELLS [1]: 0 /100WBC
- PLATELET COUNT [1]: 1239 x10E3/uL
- ALANINE AMINOTRANSFERASE [1]: 50 u/L
- ALBUMIN [1]: 4.2 G/DL
- ALKALINE PHOSPHATASE [1]: 452.67 u/L
- ASPARTATE AMINOTRANSFERASE [1]: 79.67 u/L
- BLOOD UREA NITROGEN [1]: 16.33 mg/dL
- CARBON DIOXIDE [1]: 29.67 mmol/L
- CHLORIDE [1]: 100.33 MEQ/L
- CHOLESTEROL [1]: 68 mg/dL
- CREATINE PHOSPHOKINASE [1]: 219.67 u/L
- CREATININE [1]: 0.15 mg/dL
- GLUCOSE [1]: 131.33 mg/dL
- LACTATE DEHYDROGENASE [1]: 184 u/L
- LIPASE [1]: 11 u/L
- PHOSPHORUS [1]: 10.8 mg/dL
- POTASSIUM [1]: 5.91 MEQ/L
- SODIUM [1]: 142.03 MEQ/L
- TOTAL BILIRUBIN [1]: 0.13 mg/dL
- TOTAL PROTEIN [1]: 5.73 G/DL
- URIC ACID [1]: 1.13 mg/dL
- ABSOLUTE BASOPHIL [2]: 0 CELLS/uL
- ABSOLUTE EOSINOPHIL [2]: 0 CELLS/uL
- ABSOLUTE LYMPHOCYTE [2]: 9108 CELLS/uL
- ABSOLUTE MONOCYTE [2]: 0 CELLS/uL
- ABSOLUTE SEGMENTED NEUTROPHIL [2]: 792 CELLS/uL
- BASOPHIL [2]: 0%
- EOSINOPHIL [2]: 0%
- ERYTHROCYTE COUNT [2]: 5.62 x10E6/uL
- HEMATOCRIT [2]: 33.4%
- HEMOGLOBIN [2]: 13 G/DL
- LEUKOCYTE COUNT [2]: 9.9 x10E3/uL
- LYMPHOCYTE [2]: 92%
- MEAN CORPUSCULAR HEMOGLOBIN [2]: 23.1 pg
- MEAN CORPUSCULAR HEMOGLOBIN CONCENTRATION [2]: 38.9 G/DL
- MEAN CORPUSCULAR VOLUME [2]: 59.4 fL
- MONOCYTE [2]: 0%
- NEUTROPHIL [2]: 8%
- NUCLEATED RED BLOOD CELLS [2]: 0 /100WBC
- PLATELET COUNT [2]: 1418 x10E3/uL
- ALANINE AMINOTRANSFERASE [2]: 36 u/L
- ALBUMIN [2]: 4.1 G/DL
- ALKALINE PHOSPHATASE [2]: 257 u/L
- ASPARTATE AMINOTRANSFERASE [2]: 59 u/L
- BLOOD UREA NITROGEN [2]: 21 mg/dL
- CARBON DIOXIDE [2]: 32 mmol/L
- CHLORIDE [2]: 99 MEQ/L
- CHOLESTEROL [2]: 74 mg/dL
- CREATINE PHOSPHOKINASE [2]: 207 u/L
- CREATININE [2]: 0.14 mg/dL
- GLUCOSE [2]: 142 mg/dL
- LACTATE DEHYDROGENASE [2]: 151 u/L
- LIPASE [2]: 10 u/L
- PHOSPHORUS [2]: 10.8 mg/dL
- POTASSIUM [2]: 5.22 MEQ/L
- SODIUM [2]: 139.9 MEQ/L
- TOTAL BILIRUBIN [2]: 0.1 mg/dL
- TOTAL PROTEIN [2]: 5.4 G/DL
- URIC ACID [2]: 1.3 mg/dL
- ABSOLUTE BASOPHIL [3]: 0 CELLS/uL
- ABSOLUTE EOSINOPHIL [3]: 0 CELLS/uL
- ABSOLUTE LYMPHOCYTE [3]: 8493.67 CELLS/uL
- ABSOLUTE MONOCYTE [3]: 293 CELLS/uL
- ABSOLUTE SEGMENTED NEUTROPHIL [3]: 980 CELLS/uL
- BASOPHIL [3]: 0%
- EOSINOPHIL [3]: 0%
- ERYTHROCYTE COUNT [3]: 5.59 x10E6/uL
- HEMATOCRIT [3]: 33.5%
- HEMOGLOBIN [3]: 13.07 G/DL
- LEUKOCYTE COUNT [3]: 9.77 x10E3/uL
- LYMPHOCYTE [3]: 87.67%
- MEAN CORPUSCULAR HEMOGLOBIN [3]: 23.37 pg
- MEAN CORPUSCULAR HEMOGLOBIN CONCENTRATION [3]: 39 G/DL
- MEAN CORPUSCULAR VOLUME [3]: 59.97 fL
- MONOCYTE [3]: 3%
- NEUTROPHIL [3]: 9.33%
- NUCLEATED RED BLOOD CELLS [3]: 0 /100WBC
- PLATELET COUNT [3]: 1213 x10E3/uL
- ALANINE AMINOTRANSFERASE [3]: 40.33 u/L
- ALBUMIN [3]: 4.2 G/DL
- ALKALINE PHOSPHATASE [3]: 309.67 u/L
- ASPARTATE AMINOTRANSFERASE [3]: 58.67 u/L
- BLOOD UREA NITROGEN [3]: 18.33 mg/dL
- CARBON DIOXIDE [3]: 25.67 mmol/L
- CHLORIDE [3]: 101 MEQ/L
- CHOLESTEROL [3]: 65.33 mg/dL
- CREATINE PHOSPHOKINASE [3]: 302.33 u/L
- CREATININE [3]: 0.16 mg/dL
- GLUCOSE [3]: 143 mg/dL
- LACTATE DEHYDROGENASE [3]: 125 u/L
- LIPASE [3]: 11.33 u/L
- PHOSPHORUS [3]: 10.47 mg/dL
- POTASSIUM [3]: 5.72 MEQ/L
- SODIUM [3]: 140.6 MEQ/L
- TOTAL BILIRUBIN [3]: 0.17 mg/dL
- TOTAL PROTEIN [3]: 5.47 G/DL
- URIC ACID [3]: 1.43 mg/dL
